For experiment [1], the system named is genotype 1a NS3/4a protease inhibitor resistant variant R155K transient HCV replicon in Huh-7-derived cells. Kind of experiment: Transient-transfected HCV replicon EC50, genotype 1a R155K. The conditions noted are these: Hepatitis C virus, 72 h, read-out: EC50 1A R155K, transient-transfected replicon genotype 1a R155K resistant variant, 72 h. Type of experiment: cell-based, hepatitis C virus. (In general: Replicon systems follow genome replication, usually without infectious particles.)

Experiment [2] deals with HCV NS3 protease domain genotype 3a (Hepatitis C virus genotype 3a, UniProt Q81258). Nature of the experiment: Ki determination, NS3 protease genotype 3a (fluorogenic depsipeptide substrate). Conditions: 200 pM enzyme, NS4A peptide. Type of experiment: biochemical. The method, boiled down: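 The NS3 protease domain (aa 1-181) with 20 μM NS4A peptide was used at 50 pM with 4 μM substrate (1b) or at 200 pM with 2 μM substrate (3a). Inhibitors (100 nM-5 pM) were pre-incubated 1 h at room temperature in HEPES/glycerol/DTT buffer with 10% DMSO. Steady-state rates (90-120 min) gave Ki via the Morrison equation, corrected for active enzyme and [S]/Km.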

The test system of experiment [3] is genotype 2a (JFH-1) stable HCV replicon in Huh-7-derived cells. Nature of the experiment: Stable subgenomic HCV replicon EC50, genotype 2a (Renilla luciferase). Format: cell-based, hepatitis C virus. Conditions: Hepatitis C virus, stable replicon genotype 2a, 72 h, read-out: EC50 2A RLUC. The gist of the method:
(§1)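 Compounds, three-fold diluted, were applied to Huh-7-derived cells harbouring luciferase replicons (genotype 1a H77, 1b Con1, 2a JFH-1, 4a ED43, with strain-specific adaptive mutations). Seventy-two hours later, intracellular replication was gauged by Renilla luciferase activity and EC50 derived by regression.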

Experiment [4] concerns genotype 3a (S52) stable HCV replicon in Huh-7-derived cells. Nature of the experiment: Stable subgenomic HCV replicon EC50, genotype 3a (Renilla luciferase). Type of experiment: cell-based, hepatitis C virus. The conditions noted are these: Hepatitis C virus, 72 h, read-out: EC50 3A RLUC.
Experiment [5] relates to genotype 4a (ED43) stable HCV replicon in Huh-7-derived cells. Nature of the experiment: Stable subgenomic HCV replicon EC50, genotype 4a (Renilla luciferase). Type of experiment: cell-based, hepatitis C virus. Conditions: Hepatitis C virus, 72 h, read-out: EC50 4A RLUC. The method, boiled down: as §1
Experiment [6] has as its system genotype 1b NS3/4a protease inhibitor resistant variant D168A transient HCV replicon in Huh-7-derived cells. Kind of experiment: Transient-transfected HCV replicon EC50, genotype 1b D168A. Type of experiment: cell-based, hepatitis C virus. The conditions noted are these: Hepatitis C virus, 72 h, read-out: EC50 1B D168A, transient-transfected replicon genotype 1b D168A resistant variant, 72 h.

Experiment [7] deals with genotype 1a (H77) stable HCV replicon in Huh-7-derived cells. Kind of experiment: Stable subgenomic HCV replicon EC50, genotype 1a (Renilla luciferase). Format: cell-based, hepatitis C virus. Conditions: Hepatitis C virus, stable replicon genotype 1a, 72 h, read-out: EC50 1A RLUC. The gist of the method: as §1
For experiment [8], the target named is HCV NS3 protease domain genotype 1b (Hepatitis C virus genotype 1b (isolate Con1), UniProt Q9WMX2, E1202G). Kind of experiment: Ki determination, NS3 protease genotype 1b (fluorogenic depsipeptide substrate). Type of experiment: biochemical. Conditions: 50 pM enzyme, NS4A peptide.
Experiment [9] concerns genotype 3a (S52) wild type transient HCV replicon in Huh-7-derived cells. Kind of experiment: Transient-transfected HCV replicon EC50, genotype 3a wild type. Format: cell-based, hepatitis C virus. The conditions noted are these: Hepatitis C virus; transient-transfected replicon genotype 3a wild type, 72 h; read-out: EC50 3A WT.
Experiment [10] relates to genotype 1b (Con1) wild type transient HCV replicon in Huh-7-derived cells. Kind of experiment: Transient-transfected HCV replicon EC50, genotype 1b wild type. Type of experiment: cell-based, hepatitis C virus. The conditions noted are these: Hepatitis C virus, 72 h, transient-transfected replicon genotype 1b wild type, read-out: EC50 1B WT.
In experiment [11] the test system is genotype 1a (H77) wild type transient HCV replicon in Huh-7-derived cells. Nature of the experiment: Transient-transfected HCV replicon EC50, genotype 1a wild type. Format: cell-based, hepatitis C virus. Conditions: Hepatitis C virus, 72 h, transient-transfected replicon genotype 1a wild type, read-out: EC50 1A WT.
The subject of experiment [12] is genotype 1b (Con1) stable HCV replicon in Huh-7-derived cells. Kind of experiment: Stable subgenomic HCV replicon EC50, genotype 1b (Renilla luciferase). Type of experiment: cell-based, hepatitis C virus. The conditions noted are these: Hepatitis C virus, stable replicon genotype 1b, 72 h, read-out: EC50 1B RLUC. The method, boiled down: as §1

Drawing on patent US10335409B2 (priority 2012, dated 2019), this text covers EC50 and Ki for three compounds.

Chain of HCV NS3 protease domain genotype 3a (Q81258 whole entry, looked up, the tested form may be a part): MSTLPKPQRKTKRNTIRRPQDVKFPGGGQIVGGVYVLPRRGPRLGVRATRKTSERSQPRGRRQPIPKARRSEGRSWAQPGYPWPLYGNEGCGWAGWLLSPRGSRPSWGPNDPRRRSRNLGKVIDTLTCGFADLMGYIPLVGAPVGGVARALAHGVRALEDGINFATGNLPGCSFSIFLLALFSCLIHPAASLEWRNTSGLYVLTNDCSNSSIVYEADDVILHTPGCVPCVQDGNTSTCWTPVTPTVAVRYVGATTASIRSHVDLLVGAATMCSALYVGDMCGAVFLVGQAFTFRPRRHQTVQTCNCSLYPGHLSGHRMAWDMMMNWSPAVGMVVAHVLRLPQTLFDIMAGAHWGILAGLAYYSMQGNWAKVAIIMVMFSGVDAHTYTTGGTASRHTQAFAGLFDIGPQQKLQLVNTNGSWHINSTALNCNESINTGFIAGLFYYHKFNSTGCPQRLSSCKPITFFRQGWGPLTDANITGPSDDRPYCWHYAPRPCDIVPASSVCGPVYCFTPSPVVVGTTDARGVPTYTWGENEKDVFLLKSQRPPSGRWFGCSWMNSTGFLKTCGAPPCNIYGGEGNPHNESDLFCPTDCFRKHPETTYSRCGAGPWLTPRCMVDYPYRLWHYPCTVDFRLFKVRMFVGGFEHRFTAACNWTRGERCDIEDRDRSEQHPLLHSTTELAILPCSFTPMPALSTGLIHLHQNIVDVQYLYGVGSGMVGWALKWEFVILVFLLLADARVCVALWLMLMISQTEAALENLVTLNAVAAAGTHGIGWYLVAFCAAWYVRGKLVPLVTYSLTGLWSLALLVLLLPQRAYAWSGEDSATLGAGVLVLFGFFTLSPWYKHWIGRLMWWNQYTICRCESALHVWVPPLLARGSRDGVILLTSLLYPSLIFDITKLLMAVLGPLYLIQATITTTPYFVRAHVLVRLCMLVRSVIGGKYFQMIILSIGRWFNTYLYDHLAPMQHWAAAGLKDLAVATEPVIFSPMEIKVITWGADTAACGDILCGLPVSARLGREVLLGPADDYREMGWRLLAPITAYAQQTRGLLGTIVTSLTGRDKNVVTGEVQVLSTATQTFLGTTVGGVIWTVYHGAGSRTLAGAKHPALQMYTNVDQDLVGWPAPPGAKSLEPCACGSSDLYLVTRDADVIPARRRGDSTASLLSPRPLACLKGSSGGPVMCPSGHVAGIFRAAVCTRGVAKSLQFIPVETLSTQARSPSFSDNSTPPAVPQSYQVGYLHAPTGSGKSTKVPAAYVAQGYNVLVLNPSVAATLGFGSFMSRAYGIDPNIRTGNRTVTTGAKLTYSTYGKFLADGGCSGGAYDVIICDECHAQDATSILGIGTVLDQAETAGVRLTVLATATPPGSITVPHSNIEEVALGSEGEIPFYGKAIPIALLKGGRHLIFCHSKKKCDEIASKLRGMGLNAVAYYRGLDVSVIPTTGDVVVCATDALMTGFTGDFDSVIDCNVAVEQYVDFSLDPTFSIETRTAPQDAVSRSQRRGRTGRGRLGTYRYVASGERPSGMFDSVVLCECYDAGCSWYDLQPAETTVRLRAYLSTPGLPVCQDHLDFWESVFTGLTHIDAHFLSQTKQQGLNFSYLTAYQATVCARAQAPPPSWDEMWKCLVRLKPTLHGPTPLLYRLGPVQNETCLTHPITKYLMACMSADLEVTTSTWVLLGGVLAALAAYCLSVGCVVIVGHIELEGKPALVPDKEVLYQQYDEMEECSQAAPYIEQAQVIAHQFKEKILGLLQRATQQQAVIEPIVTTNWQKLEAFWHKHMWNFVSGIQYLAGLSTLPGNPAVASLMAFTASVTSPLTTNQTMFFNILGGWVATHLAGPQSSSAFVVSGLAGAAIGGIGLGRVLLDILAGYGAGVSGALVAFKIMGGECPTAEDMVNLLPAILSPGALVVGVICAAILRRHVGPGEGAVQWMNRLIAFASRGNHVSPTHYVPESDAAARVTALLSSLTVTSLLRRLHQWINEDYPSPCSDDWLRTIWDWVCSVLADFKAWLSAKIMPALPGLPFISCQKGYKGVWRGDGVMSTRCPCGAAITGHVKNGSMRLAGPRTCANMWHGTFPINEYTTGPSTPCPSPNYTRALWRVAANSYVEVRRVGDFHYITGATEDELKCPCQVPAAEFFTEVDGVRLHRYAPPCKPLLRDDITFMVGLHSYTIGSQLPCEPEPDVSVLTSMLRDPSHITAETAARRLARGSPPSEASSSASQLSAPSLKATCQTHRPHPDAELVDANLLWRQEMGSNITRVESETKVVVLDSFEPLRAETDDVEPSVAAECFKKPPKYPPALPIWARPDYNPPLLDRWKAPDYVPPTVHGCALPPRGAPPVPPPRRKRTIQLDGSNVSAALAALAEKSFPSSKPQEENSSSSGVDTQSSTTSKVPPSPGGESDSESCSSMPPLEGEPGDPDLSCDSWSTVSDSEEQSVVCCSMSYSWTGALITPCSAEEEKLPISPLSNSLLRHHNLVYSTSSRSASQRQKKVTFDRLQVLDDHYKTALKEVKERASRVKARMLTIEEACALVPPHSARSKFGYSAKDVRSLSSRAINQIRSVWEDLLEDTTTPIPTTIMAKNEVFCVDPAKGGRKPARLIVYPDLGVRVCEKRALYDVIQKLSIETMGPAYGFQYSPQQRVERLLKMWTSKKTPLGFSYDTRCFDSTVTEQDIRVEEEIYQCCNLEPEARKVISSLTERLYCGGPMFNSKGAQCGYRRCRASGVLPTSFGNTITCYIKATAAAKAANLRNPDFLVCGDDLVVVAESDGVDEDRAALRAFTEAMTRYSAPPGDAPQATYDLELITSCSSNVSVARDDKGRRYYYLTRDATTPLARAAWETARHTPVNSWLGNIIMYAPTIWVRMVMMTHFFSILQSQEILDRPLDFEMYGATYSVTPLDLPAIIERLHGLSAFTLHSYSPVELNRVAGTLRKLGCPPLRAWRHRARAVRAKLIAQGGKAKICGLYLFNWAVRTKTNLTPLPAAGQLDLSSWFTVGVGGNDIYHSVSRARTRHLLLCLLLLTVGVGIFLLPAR
Chain of HCV NS3 protease domain genotype 1b (Q9WMX2 1027-1208 E1202G): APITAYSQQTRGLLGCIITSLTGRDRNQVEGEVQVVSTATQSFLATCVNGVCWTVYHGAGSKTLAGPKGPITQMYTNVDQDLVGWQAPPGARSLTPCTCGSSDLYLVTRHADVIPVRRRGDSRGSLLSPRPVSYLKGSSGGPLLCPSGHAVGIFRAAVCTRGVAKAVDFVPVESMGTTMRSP

Take `CC[C@@H]1[C@@H]2CN(C(=O)[C@H](C(C)(C)C)NC(=O)O[C@@H]3C[C@@H]4C[C@@H]4[C@H]3CCCCC(F)(F)c3nc4ccc(OC)cc4nc3O2)[C@@H]1C(=O)N[C@]1(C(=O)NS(=O)(=O)C2CC2)C[C@H]1C(F)F` [Example 59, (1aS,2aR,6S,9S,10 S,11R,23aR,23bS)-6-tert-butyl-N-[(1R,2R)-1-[(cyclopropylsulfonyl)carbamoyl]-2-(difluoromethyl)cyclopropyl]-10-ethyl-19,19-difluoro-15-methoxy-4,7-dioxo-1a,2,2a,4,5,6,7,10,11,19,20,21,22,23,23a,23b-hexadecahydro-1H,9H-8,11-methanocyclopropa[4′,5′]cyclopenta[1′,2′:18,19][1,10,3,6]dioxadiazacyclononadecino[11,12-b]quinoxaline-9-carboxamide]: the 50% effective concentration (EC50) (in general, the concentration that produces a half-maximal response) was 6.8 nM in [1]; 13 nM in [3]; 20 nM in [4]; 5.6 nM in [5]; 6.4 nM in experiment [6]; 5.4 nM in [7]. Moreover, the EC50 in [9] came out at 15 nM; in experiment [10], 6.8 nM; in experiment [11], 10 nM; in [12], 11 nM. For the same compound, the Ki (as a rule, the dissociation constant of the complex between target and ligand, obtained from inhibition or displacement) in experiment [2] is 0.06 nM; in experiment [8], 0.04 nM.

`CC[C@@H]1[C@@H]2CN(C(=O)[C@H](C(C)(C)C)NC(=O)O[C@@H]3C[C@H]3CCCCCc3nc4ccc(OCC(F)(F)F)cc4nc3O2)[C@@H]1C(=O)N[C@]1(C(=O)NS(=O)(=O)C2(C)CC2)C[C@H]1C(F)F` [Example 55, (1aR,5S,8S,9S,10R,22aR)-5-tert-butyl-N-[(1R,2R)-2-(difluoromethyl)-1-{[(1-methylcyclopropyl)sulfonyl]carbamoyl}cyclopropyl]-9-ethyl-3,6-dioxo-14-(2,2,2-trifluoroethoxy)-1,1a,3,4,5,6,9,10,18,19,20,21,22,22a-tetradecahydro-8H-7,10-methanocyclopropa[18,19][1,10,3,6]dioxadiazacyclononadecino[11,12-b]quinoxaline-8-carboxamide]: the EC50 in experiment [1] worked out at 32 nM; in experiment [3], 12 nM; in experiment [4], 140 nM; in experiment [5], 3.5 nM; in experiment [6], 53 nM; in experiment [7], 13 nM. Also, the EC50 in experiment [9] stood at 71 nM; in experiment [10], 2.3 nM; in experiment [11], 8 nM; in experiment [12], 3.8 nM. Besides, the results for the Ki in [2] and in [8] were 0.2 nM and 0.09 nM, respectively.

Take `C[C@@H]1[C@@H]2CN(C(=O)[C@H](C(C)(C)C)NC(=O)O[C@@H]3C[C@@H]4C[C@@H]4[C@H]3CCCCCc3nc4ccc(Cl)cc4nc3O2)[C@@H]1C(=O)N[C@]1(C(=O)NS(=O)(=O)C2CC2)C[C@H]1C(F)F` [Example 79, (1aS,2aR,6S,9S,10S,11R,23aR,23bS)-6-tert-butyl-15-chloro-N-[(1R,2R)-1-[(cyclopropylsulfonyl)carbamoyl]-2-(difluoromethyl)cyclopropyl]-10-methyl-4,7-dioxo-1a,2,2a,4,5,6,7,10,11,19,20,21,22,23,23a,23b-hexadecahydro-1H,9H-8,11-methanocyclopropa[4′,5′]cyclopenta[1′,2′:18,19][1,10,3,6]dioxadiazacyclononadecino[11,12-b]quinoxaline-9-carboxamide]: the EC50 is 7.1 nM in experiment [1]; 4.1 nM in [3]; 71 nM in experiment [4]; 5.6 nM in experiment [5]; 11 nM in [6]; 7 nM in [7]. The EC50 was 9.2 nM in experiment [9], 3 nM in experiment [10], 6.1 nM in [11] and 5.8 nM in experiment [12]. For the same compound, the Ki in experiment [2] and in [8] was 0.06 nM throughout.
